N[C@@H](CC(=O)N1CCn2c(nnc2C(F)(F)F)C1)Cc1cc(F)c(F)cc1F
Settings	solubility (mole fraction)
in THF, 278.15 K	0.0212
in THF, 283.15 K	0.0274
in THF, 288.15 K	0.0322
in THF, 293.15 K	0.0363
in THF, 298.15 K	0.0463
in THF, 303.15 K	0.0554
in THF, 308.15 K	0.0625
in THF, 313.15 K	0.0756
in THF, 318.15 K	0.0933
in THF, 323.25 K	0.114
in acetonitrile, 278.15 K	0.0265
in acetonitrile, 283.15 K	0.0354
in acetonitrile, 288.15 K	0.0432
in acetonitrile, 293.15 K	0.0536
in acetonitrile, 298.15 K	0.0576
in acetonitrile, 303.15 K	0.0681
in acetonitrile, 308.15 K	0.0888
in acetonitrile, 313.15 K	0.105
in acetonitrile, 318.15 K	0.128
in acetonitrile, 323.15 K	0.156
in ethanol, 273.15 K	0.00768
in ethanol, 278.15 K	0.0108
in ethanol, 283.15 K	0.0138
in ethanol, 288.15 K	0.0179
in ethanol, 293.15 K	0.0233
in ethanol, 298.15 K	0.0298
in ethanol, 303.15 K	0.0363
in ethanol, 308.15 K	0.0451
in ethanol, 313.15 K	0.0606
in ethanol, 318.15 K	0.078
in ethyl acetate, 278.15 K	0.00986
in ethyl acetate, 283.15 K	0.0117
in ethyl acetate, 288.15 K	0.014
in ethyl acetate, 293.15 K	0.0167
in ethyl acetate, 298.15 K	0.02
in ethyl acetate, 303.15 K	0.0242
in ethyl acetate, 308.15 K	0.0286
in ethyl acetate, 313.15 K	0.0353
in ethyl acetate, 318.15 K	0.0435
in ethyl acetate, 323.15 K	0.0565
in isobutanol, 278.15 K	0.0101
in isobutanol, 283.15 K	0.0123
in isobutanol, 288.15 K	0.014
in isobutanol, 293.15 K	0.0158
in isobutanol, 298.15 K	0.0191
in isobutanol, 303.15 K	0.0216
in isobutanol, 308.15 K	0.0255
in isobutanol, 313.15 K	0.0301
in isobutanol, 318.15 K	0.0334
in isobutanol, 323.15 K	0.0379
in isopentanol, 278.15 K	0.00453
in isopentanol, 283.15 K	0.0054
in isopentanol, 288.15 K	0.00647
in isopentanol, 293.15 K	0.00801
in isopentanol, 298.15 K	0.0104
in isopentanol, 303.15 K	0.0123
in isopentanol, 308.15 K	0.0154
in isopentanol, 313.15 K	0.0184
in isopentanol, 318.15 K	0.0232
in isopentanol, 323.15 K	0.0316
in isopropanol, 273.15 K	0.00439
in isopropanol, 278.15 K	0.00482
in isopropanol, 283.15 K	0.00579
in isopropanol, 288.15 K	0.00703
in isopropanol, 293.15 K	0.00857
in isopropanol, 298.15 K	0.0103
in isopropanol, 303.15 K	0.0122
in isopropanol, 308.15 K	0.0139
in isopropanol, 313.15 K	0.0162
in isopropanol, 318.15 K	0.0188
in methyl acetate, 278.15 K	0.0397
in methyl acetate, 283.15 K	0.05
in methyl acetate, 288.15 K	0.0545
in methyl acetate, 293.15 K	0.063
in methyl acetate, 298.15 K	0.0728
in methyl acetate, 303.15 K	0.0835
in methyl acetate, 308.15 K	0.0954
in methyl acetate, 313.15 K	0.111
in methyl acetate, 318.15 K	0.126
in methyl acetate, 323.15 K	0.139
in n-butanol, 278.15 K	0.0105
in n-butanol, 283.15 K	0.0129
in n-butanol, 288.15 K	0.0141
in n-butanol, 293.15 K	0.0177
in n-butanol, 298.15 K	0.0208
in n-butanol, 303.15 K	0.0243
in n-butanol, 308.15 K	0.0262
in n-butanol, 313.15 K	0.0328
in n-butanol, 318.15 K	0.0382
in n-butanol, 323.15 K	0.0452
in n-propanol, 278.15 K	0.00795
in n-propanol, 283.15 K	0.011
in n-propanol, 288.15 K	0.0123
in n-propanol, 293.15 K	0.0183
in n-propanol, 298.15 K	0.022
in n-propanol, 303.15 K	0.0278
in n-propanol, 308.15 K	0.0387
in n-propanol, 313.1 K	0.0433
in n-propanol, 318.15 K	0.0572
in n-propanol, 323.15 K	0.0804
in sec-butanol, 278.15 K	0.00274
in sec-butanol, 283.15 K	0.00346
in sec-butanol, 288.15 K	0.0047
in sec-butanol, 293.15 K	0.00513
in sec-butanol, 298.15 K	0.00739
in sec-butanol, 303.15 K	0.00958
in sec-butanol, 308.15 K	0.0115
in sec-butanol, 313.15 K	0.0142
in sec-butanol, 318.15 K	0.0194
in sec-butanol, 323.15 K	0.0224
in water, 278.15 K	0.000281
in water, 283.15 K	0.000319
in water, 288.15 K	0.000349
in water, 293.15 K	0.000376
in water, 298.15 K	0.00042
in water, 303.15 K	0.000458
in water, 308.15 K	0.000499
in water, 313.15 K	0.000542
in water, 318.15 K	0.000574
in water, 323.15 K	0.000633

— BigSolDB 2.1
